Measurements published in patent US9034825B2, “Treatment of myocardial injury with humanin analogs” (Albert Einstein College of Medicine of Yeshiva University, priority 2007, dated 2015).
Where no end group is shown, it is not given here.

Key:
Sprague-Dawley rats [1] = assay: ICV infusion of IGF-1, IGFBP-3 or NLS mutant with basal and hyperinsulinemic clamp; type: in vivo, rat; conditions: for Glycogen synthesis, Basal / Glycolysis, Basal / HGP, Basal: basal period; for GIR, Clamp: hyperinsulinemic clamp 3 mU/kg/min; for FFA: last 60 min; for whole body glucose disposal / peripheral glucose uptake (Rd) compared to controls: final 60 min; for infused human peptide in the rat periphery: after ICV infusion
Description: Young (3 mo old, n=6 in each group), male Sprague-Dawley rats (Charles River Laboratories, Wilmington, Mass.) were used for this study. Rats were housed in individual cages and were subjected to a standard light (6:00 AM to 6:00 PM)—dark (6:00 PM to 6:00 AM) cycle. All rats were fed ad libitum using regular rat chow that consisted of 64% carbohydrate, 30% protein, and 6% fat with a physiological fuel value of 3.3-kcal/g chow. In the rats that received ICV infusions, 2 to 4 weeks before the in vivo study, the rats were anesthetized by inhalation of isoflurane and a cannula was placed ICV in the third ventricle for infusions of IGF-1, IGFBP-3 or IGFBP-3 mutant or artificial cerebrospinal fluid (aCSF), as previously described (Muzumdar et al., 2003) (FIG. 1). Briefly, a 26-gauge stainless steel guide cannula (Plastics One, Roanoke, Va.) was chronically implanted into the third ventricles using the following coordinates from bregma: anterior-posterior; +0.2 mm dorsal-ventral; −9.0 mm medial-lateral; 0.0 directly on the mid-sagittal suture, followed by a 28-gauge dummy cannula, inserted to prevent clogging of the guide cannula. The implant was secured to the skull with Caulk Grip dental cement, and the skin was closed over the implant using wound clips. The recovery of rats from the surgical stress was monitored with daily weight, food intake, and movement.
Upon recovery of body weight, usually a week, indwelling catheters were placed in the right internal jugular vein and in the left carotid artery (Muzumdar et al., 2003). The venous catheter was extended to the level of the right atrium, and the arterial catheter was advanced to the level of the aortic arch. Recovery was continued until body weight was within 3% of the pre-operative weight (˜4-6 days). In the rats that received peripheral IGFBP-3, only the vascular catheters were placed.
Studies were performed in unrestrained rats using the insulin clamp technique, in combination with high performance liquid chromatography-purified [3-^3H]glucose and [U-^14C]lactate infusions, as described previously (Liu et al., 1998). Food was removed for ˜5 h before the in vivo protocol. All studies lasted 360 min and included a 120-min equilibration period, a 120-min basal period for assessment of the basal glucose turnover, and a 120-min hyperinsulinemic clamp period. All rats received ICV infusions (bolus followed by continuous ICV infusions of IGF-1, IGFBP-3, IGFBP-3 mutant or aCSF, depending on the group) over the entire 6 hours of the study. At the beginning of the basal period and 120 min before starting the glucose/insulin infusions, a primed-continuous infusion of high performance liquid chromatography-purified [3-^3H]glucose (NEN Life Science Products, Boston, Mass.; 20 μCi of bolus, 0.2 μCi/min) was initiated and maintained throughout the remaining 4 h of the study. In the final 2 hours of the study, the rats were subjected to hyperinsulinemic clamp. The protocol followed during the insulin clamp study was similar to that previously described (Liu et al., 1998). Briefly, a primed-continuous infusion of regular insulin (3 milliunits/kg·min) was administered, and a variable infusion of a 25% glucose solution was started and periodically adjusted to clamp the plasma glucose concentration at 7-8 mM. To prevent endogenous insulin secretion and in order to control for possible effects of ICV infusions on the endocrine pancreas, somatostatin (1.5 μg/kg·min) was also infused in all the groups. [U-^14C]Lactate (5 μCi of bolus/0.25 μCi/min) was infused during the last 10 min of the study.
A bolus of hIGF-1 (0.3 mcg, a gift from Tercica, South San Francisco) was followed by a continuous infusion over 6 hours (total dose of 1 mcg, 0.06 μg/kg/hr).
A bolus of non glycosylated hIGFBP-3 (1.25 μg, generously provided by Celtrix, Mountain View Calif.) was followed by a continuous infusion over 6 hours (total dose of 5.25 mcg, 0.26 μg/kg/hr). […]

PEPCK mRNA in the liver = assay: Hepatic PEPCK mRNA by qRT-PCR at end of clamp after ICV infusion; type: in vivo, rat; conditions: ICV infusion for 6 h, end of clamp (Example 1)
Procedure: (§1) Total RNA was extracted following Clontech's protocol. First-stranded cDNA was synthesized from 1 μg of total RNA using Superscript III (Gibco, Gaithersburg, Md.). Hepatic glucose-6-phosphatase (Glc-6-Pase) and phosphoenolpyruvate carboxykinase (PEPCK) mRNA abundance were assessed by qRT-PCR as described previously (Buettner et al., 2005). Quantification of these peptides and their copy number was normalized for GAPDH and 18S to correct for loading irregularities. The data presented are those normalized by GAPDH.

[2] = tested on: Glc-6-Pase mRNA in the liver; assay: Hepatic Glc-6-Pase mRNA by qRT-PCR at end of clamp after ICV infusion; type: in vivo, rat
Procedure: as §1

NIT cells = assay: Survival, STAT-3 and ERK activation in NIT cells; type: cell-based
Description: Z-humanin, […] (SEQ ID NO:19).

[3] = tested on: pAKT and pSTAT-3 in hepatocytes; assay: Western blot of Phospho-STAT3 and Phospho-AKT in primary hepatocytes; type: cell-based, rat
Procedure: Single-cell suspensions of hepatocytes were obtained from perfusions of Sprague-Dawley rats using the procedure of Berry and Friend (1969) and the perfusion mixture of Leffert et al (1979). Hepatocyte glucose production was estimated after a 24 hr treatment with HN, F6A and saline as described before (Berg et al. 2001). In a separate set of experiment, hepatocytes were lysed, and protein extracted in RIPA lysis buffer at 30, 60 and 360 min post treatment with FIN, F6A and saline. The cell lysates were then subject to western blotting for Phospho-STAT3 (Tyr705), total-STAT3, Phospho-AKT (Ser473), and total-AKT expression (antibodies purchased from Cell Signaling, #9131, #9132, #9271, #9272).

IGF-1 = IGF-1 (Homo sapiens, UniProt P05019); assay: Western ligand blots with 125I-labeled IGF-1; type: binding; conditions: data not shown
[4] = tested on: memory impairment caused by AD-related insults; conditions: literature (Tajima et al., 2005); cited from earlier work
[5] = tested on: mice, myocardial ischemia-reperfusion (I/R) injury; assay: Murine myocardial ischemia-reperfusion injury; type: in vivo, mouse
Procedure: The cardioprotective effects of a single-dose of humanin analog HNG treatment were investigated in a murine model of myocardial ischemia-reperfusion (I/R) injury. Mice were subjected to transient myocardial ischemia for a period of 45 min followed by 24 hour reperfusion. HNG (1, 5, 10, 25, 50 and 200 microgram) or vehicle (saline) was administered intraperitoneally one hour before ischemia.

BP3KO MEFs = assay: Apoptosis ELISA in IGFBP3 KO mouse embryonic fibroblasts; type: cell-based; conditions: 24 hours, 100 nM of peptides
Procedure: Mouse embryonic fibroblasts derived from normal and IGFBP3 KO mice were used to test the effects of humanin and its analogues on survival. Apoptosis ELISA was used as an output measure and cells were treated for 24 hours with 100 nM of peptides. […] Thus, the HNGF6A humanin analogue has non-obvious properties that are different from previously described humanin derivatives and has increased potency as a result of its specific molecular alteration leading to reduced IGFBP-3 binding.

Sprague-Dawley rats [6] = assay: Intravenous infusion of humanin or analogs during hyperinsulinemic clamp; type: in vivo, rat; conditions: IV during hyperinsulinemic clamp
Procedure: To study the acute effects of an infusion of IGFBP-3, two groups of awake, unstressed, chronically catheterized Sprague-Dawley rats (˜300 g) were studied for 300 min (n=3 in each group) under hyperinsulinemic clamp (as previously described). From 120 min the rats received a primed continuous infusion of humanin (0.375 mg/kg/hr) or saline (control) for an additional 2 h. Plasma samples for determination of [3H]glucose and [3H] water specific activities were obtained at 10-min intervals during the basal and clamp periods. Steady state conditions for the plasma glucose concentration and specific activity were achieved within 90 min in all the studies. Plasma samples for determination of HN, insulin and FFA concentrations were collected at 30-min intervals throughout the study. All determinations were also performed on portal vein blood obtained at the end of the experiments. The total amount of blood drawn during the entire study for various assays is ˜3 cc. After separation of plasma (subsequently used for analysis), the red blood cells were reconstituted in saline and infused back into the animal.
To determine if peripheral infusion of the humanin analog colivelin affects insulin action, saline or colivelin (one hundredth of the dose of humanin) was infused intravenously during hyperinsulinemic clamp to two groups of rats that were matched for body weight (˜300 gm), visceral fat (˜3.5 grams), basal glucose (˜135 mg % or 7 mM). Colivelin increased hepatic insulin sensitivity by 33% while peripheral glucose uptake was unchanged (FIG. 14).
A primed-continuous ICV infusion of HN, F6A-HN (total dose of 20 μg), STAT-3 inhibitor (75 pmol) (Buettner et al. 2006), or aCSF was initiated at t=0 and maintained for the remainder of the experiment (FIG. 15A). Pancreatic insulin-clamp studies or euglycemic-hyperinsulinemic clamps were performed in conscious, unrestrained, catheterized mice for last 120 minutes as described previously (Bahar et al. 2006, Muzumdar et al. 2006). In the intra-venous group, HN, F6A, Colivelin, and HNGF6A were infused intravenously and hyperinsulinemic clamps were performed as described previously (Loeb et al. 2005). Estimation of glucose, glucose fluxes, insulin, FFA were done as described previously (Loeb et al. 2005). HN measurements were performed by an in-house, ELISA utilizing affinity purified humanin antibodies that recognize both human and rat humanin and has a limit of detection of 0.1 ng/ml (Hwang, and Cohen personal communication).

[7] = ICV IGF-1 1 μg over 6 h, hyperinsulinemic clamp
[8] = ICV infusion, hyperinsulinemic clamp
[9] = ICV IGFBP-3 or NLS mutant over 6 h
[10] = ICV IGFBP-3 or NLS mutant over 6 h, hyperinsulinemic clamp
[11] = humanin 0.375 mg/kg/hr, colivelin one hundredth of the dose of humanin

IGF-1, sequence (P05019 49-118): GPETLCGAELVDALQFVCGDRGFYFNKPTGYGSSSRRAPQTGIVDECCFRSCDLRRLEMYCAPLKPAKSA

IGF-1: hIGF-1, Insulin-like growth factor-1, a gift from Tercica
Glycogen synthesis, Basal (Sprague-Dawley rats [1]; ICV IGF-1 1 μg over 6 h): 4.87 ± 0.87 | Glycolysis, Basal (Sprague-Dawley rats [1]; ICV IGF-1 1 μg over 6 h): 7.02 ± 0.93 mg/kg/min | HGP, Basal (Sprague-Dawley rats [1]; ICV IGF-1 1 μg over 6 h): 12.4 ± 1.65 mg/kg/min | Glycogen synthesis, Clamp (Sprague-Dawley rats [1]; [7]): 8.09 ± 0.67 | Glycolysis, Clamp (Sprague-Dawley rats [1]; [7]): 13.53 ± 1.17 mg/kg/min | HGP, Clamp (Sprague-Dawley rats [1]; [7]): 2.49 ± 0.54 mg/kg/min | Rd, Clamp (Sprague-Dawley rats [1]; [7]): 21.62 ± 0.74 mg/kg/min | GIR, Clamp (Sprague-Dawley rats [1]; ICV IGF-1 1 μg over 6 h): 19.08 ± 1.55 mg/kg/min | FFA (Sprague-Dawley rats [1]; [7]): 0.23 ± 0.02 mEq/l | IGF-1, human (Sprague-Dawley rats [1]; ICV IGF-1 1 μg over 6 h, peripheral plasma): 0 ng/mL | improvement in hepatic insulin action (lower HGP than controls) (Sprague-Dawley rats [1]; ICV IGF-1, insulin clamp 3 mU/kg/min): 50% | gluconeogenesis (Sprague-Dawley rats [1]; [8]): 0.54 ± 0.2 mg/kg/min | glycogenolysis / hepatic glucose fluxes compared to controls (Sprague-Dawley rats [1]; [8]): marked decrease | insulin induced suppression of FFA compared to controls (Sprague-Dawley rats [1]; [8]): significantly higher | whole body glucose disposal / peripheral glucose uptake (Rd) compared to controls (Sprague-Dawley rats [1]; [8]): tended to augment | infused human peptide in the rat periphery (Sprague-Dawley rats [1]): No hIGF-1 was detected | infused human peptide in the rat periphery (Sprague-Dawley rats [1]; listed as human IGF-1): No human IGF-1, hIGFBP-3 or NLS-IGFBP-3 was identified | PEPCK mRNA in the liver, ratio to GAPDH (PEPCK mRNA in the liver): 3.4 ±0.6 | expression of G-6Pase lower than aCSF ([2]; ICV IGF-1, end of clamp): 3 fold | expression of G-6Pase in the liver, ratio to GAPDH ([2]; ICV infusion for 6 h, end of clamp (Example 1)): 2.6 ±0.6

MAKRGLNCLPHQVSEIDLSVQKRI (Danio rerio) [Z-humanin]
potency in survival, STAT-3 activation and ERK activation relative to humanin (NIT cells): two-fold greater potency than humanin

MAPRGASCLLLLTGEIDLPVARRA (Humanin analog HNGF6AK21A)
potency in survival, STAT-3 activation and ERK activation relative to humanin (NIT cells): much greater potency than humanin

MAPRGASCLLLLTSEIDLPVKRRA [F6A HN, maprgascll lltseidlpv krra]
pAKT or pSTAT-3 in hepatocytes [3]: did not elicit significant changes

NLS: non-glycosylated NLS mutant of IGFBP-3 with two amino acid substitutions (K228E and R230G)
Glycogen synthesis, Basal (Sprague-Dawley rats [1]; [9]): 5.34 ± 0.38 | Glycolysis, Basal (Sprague-Dawley rats [1]; [9]): 7.40 ± 0.71 mg/kg/min | HGP, Basal (Sprague-Dawley rats [1]; [9]): 13.00 ± 0.72 mg/kg/min | Glycogen synthesis, Clamp (Sprague-Dawley rats [1]; [10]): 6.93 ± 0.37 | Glycolysis, Clamp (Sprague-Dawley rats [1]; [10]): 10.44 ± 0.96 mg/kg/min | HGP, Clamp (Sprague-Dawley rats [1]; [10]): 5.37 ± 0.65 mg/kg/min | Rd, Clamp (Sprague-Dawley rats [1]; [10]): 17.38 ± 1.11 mg/kg/min | GIR, Clamp (Sprague-Dawley rats [1]; [9]): 11.98 ± 1.14 mg/kg/min | FFA (Sprague-Dawley rats [1]; [10]): 0.35 ± 0.05 mEq/l | h-IGFBP-3 (Sprague-Dawley rats [1]; ICV IGFBP-3 or NLS mutant over 6 h, peripheral plasma): 0 ng/mL | glycogenolysis / hepatic glucose fluxes compared to controls (Sprague-Dawley rats [1]; [8]): no changes in glucose fluxes compared to controls | whole body glucose disposal / peripheral glucose uptake (Rd) compared to controls (Sprague-Dawley rats [1]; [8]): did not result in significant changes | infused human peptide in the rat periphery (Sprague-Dawley rats [1]): No human IGF-1, hIGFBP-3 or NLS-IGFBP-3 was identified | binding to 125I-labeled IGF-1 (IGF-1): bound equally

maprgfscll lltgeidlpv krra (MAPRGFSCLLLLTGEIDLPVKRRA; Humanin analog S14G (HNG)) [humanin analogue in which serine at position 14 is replaced by glycine]
potency relative to native HN in rescue activity against AD-related insults in vivo [4]: 1000 times | myocardial injury ([5]; single dose IP one hour before 45 min ischemia, 24 hour reperfusion): decreased myocardial injury | doses at which reduced myocardial infarct was observed ([5]; single dose IP one hour before ischemia, 1-200 microgram tested): ≥ 5 µg | potency on survival (Apoptosis ELISA) (BP3KO MEFs): equal potency

sallrsipap agasrllllt geidlp (SALLRSIPAPAGASRLLLLTGEIDLP; Humanin analog colivelin)
HGP / hepatic insulin action (Sprague-Dawley rats [6]; HN 0.375 mg/kg/hr, Colivelin 0.00375 mg/kg/hr): significant further enhancement in hepatic insulin action | increase in hepatic insulin sensitivity (Sprague-Dawley rats [6]; [11]): 33% | peripheral glucose uptake (Sprague-Dawley rats [6]; [11]): unchanged
